Source: patent US4365076A, “Process for the preparation of cycloalkylidenemethylphenylacetic acid derivatives” (Sankyo Company Limited, priority 1977, dated 1982)

Tests used:
[1] = test system: carrageenin-induced paw edema; test: Carrageenin Edema Test in Rats; type: in vivo, rat (male Wistar); conditions: for ED50: Rattus norvegicus, po, P.O., 30 minutes before carrageenin, edema 3 hours after, rats, Table II, read-out: Anti-inflammatory activity, Carrageenin Edema Test ID50; for Inhibition %, Anti-inflammatory activity: Table I
Experimental: (1) Carrageenin Edema Test in Rats
Inflammation was introduced by injection of 0.05 ml. of 1% carrageenin suspension into the plantar tissue of rat hind paw subcutaneously, by the method of Winter et al. in Proc. Soc. Exp. Biol. Med. 111, 544 (1962). Male Wistar rats weighing 120 to 150 g. which had fasted overnight received the test drug in aqueous tragacanth suspension orally 30 minutes before the carrageenin injection.
Paw edema was measured volumetrically, just before and 3 hours after the carrageenin injection, and R (response) was obtained by the following equation: R=(V-Vo)/Vo, where Vo and V represented the paw volumes 0 and 3 hours after carrageenin injection, respectively.
(§1) In order to get the regression line of H (% inhibition of the response) on D (dose of test drug), H in each animal was calculated from the ratio of the response to the mean response in non-medicated group. Then, the regression line and ID50 were obtained by the method of least squares. The confidence limits of ID50 was calculated using Fieller's Equation.

inflammatory pain = test: Thermal Pain Test in Rats (analgesic activity on inflammatory pain); type: in vivo, rat (male Wistar); conditions: for ED50: Rattus norvegicus, po, P.O., mean at 1 and 2 hours after drug, rats, Table II, read-out: Analgesic activity, Thermal Pain Test ID50; for Inhibition %, Analgesic activity: Table I
Experimental: II. ANALGESIC ACTIVITY ON INFLAMMATORY PAIN
Thermal Pain Test in Rats
The test was conducted according to the method reported by Y. Iizuka and K. Tanaka in Folia Pharmacol. Japan, 70, 697 (1974).
Under ether anesthesia, male Wistar rat of 5-7 weeks old received a standard heat injury at the hind paw by dipping it in hot water (57° C., 6 seconds). More than 1 hour later, the pain reaction could be evoked easily by another stimulatory heat (40° C., 5 seconds). Namely immediately after this treatment, the animal used to lift up the injured paw, presumably to avoid further pain which might be caused by touching it with the wire-netting of the cage.
Thus, the sum of duration time of the paw-lifting behavior was counted over a 30 seconds period and this was used as "pain reaction time." Drug was given orally 2 hours after the first application of heat and the mean value of "pain reaction time" at 1 and 2 hours after drug administration was used as the response.
as §1

[2] = test system: adjuvant-induced arthritis; test: Adjuvant-induced Arthritis Test in Rats (Therapeutic Effect on Established Arthritis); type: in vivo, rat (female Lewis); conditions: Rattus norvegicus, po, 168 h, P.O., twice a day, 7 days (day 18 to 25), Table II, read-out: Anti-inflammatory activity, Adjuvant Arthritis Test ID50
Experimental: (2) Adjuvant-induced Arthritis Test in Rats
(Therapeutic Effect on Established Arthritis)
Female Lewis rats of 7-8 weeks old were injected intradermally in the hind paw with 0.05 mg. of heat-killed Mycobacterium butyricum in 0.05 ml. of liquid paraffin. Eighteen days after adjuvant injection, the well-established arthritic animals were selected and subjected to 7 days therapy with drug (twice a day orally). As the response, the volume of injected foot was measured by water displacement method at the beginning (day 18) and the end (day 25) of the therapy period.
as §1
In adjuvant arthritis, however, the ratio (RR) of responses after/before medication period was calculated first, where the response meant the swelled foot volume of the injected foot. Then, H in each animal was calculated from the ratio of RR to RRc, where RRc represented the mean RR is non-medicated group.

LPS-induced fever = test: LPS-induced Fever Test in Guinea Pigs (antipyretic activity); type: in vivo, guinea pig (female Hartley); conditions: Cavia porcellus, po, P.O., 1.5 hours after LPS, mean at 1 and 2 hours after drug, Table II, read-out: Antipyretic activity, LPS-induced Fever Test ID50
Experimental: III. ANTIPYRETIC ACTIVITY
LPS-induced Fever Test in Guinea Pigs
Antipyretic activity was determined by a modified method of Kobayashi and Takagi in Jap. J. Pharmacol. 18, 80 (1968). Female Hartley guinea pigs weighing about 300 g. had fasted overnight and the fever was induced by injecting 1.0 μg/ml/kg LPS (product of Difco Laboratories, U.S.A., Lipo polysaccharide from Escherichia coli).
One hour after the injection, rectal temperature was measured and only the animals with fever between 0.8° C. and 1.2° C. were used for experiment.
Drugs were administered orally 1.5 hours after LPS injection, and the mean value of rectal temperature of each animal 1 and 2 hours after drug administration was used as the response.
as §1

Compound | ED50 [1] | ED50 (inflammatory pain) | ED50 [2] | ED50 (LPS-induced fever) | Inhibition %, Anti-inflammatory activity ([1]; 6.3 mg/kg (P.O.)) | Inhibition %, Analgesic activity (inflammatory pain; 6.3 mg/kg (P.O.)) | Inhibition %, Anti-inflammatory activity ([1]; (Control) 25 mg/kg (P.O.)) | Inhibition %, Analgesic activity (inflammatory pain; (Control) 19 mg/kg (P.O.))
CC(C)Cc1ccc(C(C)C(=O)O)cc1 (stereo not shown) [Ibuprofen, reference compound] | 10.8 mg/kg | 17.8 mg/kg | 104 mg/kg | 1.26 mg/kg |  |  |  | 
CC(C(=O)O)c1ccc(C=C2CCCCC2=O)cc1 (stereo not shown) [2-[4-(2-Oxo-1-cyclohexylidenemethyl)phenyl]propionic acid] | 1.2 mg/kg | 1.8 mg/kg | 0.2 mg/kg | 1.46 mg/kg | 75.0% | 86.8% |  | 
CCOC(=O)C(C)c1ccc(C=C2CCCC2=O)cc1 (stereo not shown) [Ethyl 2-[4-(2-oxo-1-cyclopentylidenemethyl)phenyl]propionate] |  |  |  |  | 85.0% | 50.5% |  | 
CCCCC1C(=O)N(c2ccccc2)N(c2ccccc2)C1=O [Phenylbutazone, reference compound] |  |  |  |  |  |  | 30.6% | 37%
CC(C(=O)O)c1ccc(C=C2CCCC2=O)cc1 (stereo not shown) [2-[4-(2-Oxo-1-cyclopentylidenemethyl)phenyl]propionic acid] | 1.4 mg/kg | 1.3 mg/kg | 1.2 mg/kg | 0.83 mg/kg | 76.4% | 77.4% |  | 
CCOC(=O)C(C)c1ccc(C=C2CCCCC2=O)cc1 (stereo not shown) [Ethyl 2-[4-(2-oxo-1-cyclohexylidenemethyl)phenyl]propionate] |  |  |  |  | 72.7% | 59.2% |  | 
